This is an account of results in ChEMBL document CHEMBL3297712, “Chasing protons: how isothermal titration calorimetry, mutagenesis, and pKa calculations trace the locus of charge in ligand binding to a tRNA-binding enzyme” (J Med Chem, 2014).

Assay [1] is described as follows: Binding affinity to wild-type Zymomonas mobilis TGT overexpressed in Escherichia coli BL21(DE3) by isothermal titration calorimetric analysis. A general note: Isothermal titration calorimetry measures the heat released or taken up as one component is titrated into another.
Assay [2] is described as follows: Binding affinity to Zymomonas mobilis TGT D102N mutant overexpressed in Escherichia coli BL21(DE3) by isothermal titration calorimetric analysis.
The nature of assay [3]: Binding affinity to Zymomonas mobilis TGT D156N mutant expressed in Escherichia coli Rosetta 2(DE3) by isothermal titration calorimetric analysis.
The subject of assay [4] is Zymomonas mobilis. The assay can be described thus: Selectivity ratio of Kd for Zymomonas mobilis TGT D156N mutant to Kd for wild-type Zymomonas mobilis TGT.
In assay [5] the test system is Zymomonas mobilis. Kind of assay: Selectivity ratio of Kd for Zymomonas mobilis TGT D102N mutant to Kd for wild-type Zymomonas mobilis TGT.
Assay [6] is described as follows: Binding affinity to Zymomonas mobilis TGT E235Q mutant overexpressed in Escherichia coli BL21(DE3) by isothermal titration calorimetric analysis.

A word on the Kd: it is the constant that tells how readily two partners part at equilibrium. Turning to `CNc1nc2cc3c(=O)[nH]c(N)nc3cc2[nH]1`, the Kd in assay [1] came to 0.0524 µM; in assay [2], 0.146 µM; in assay [3], 0.188 µM. The values for the Selectivity ratio in assay [4] and in assay [5] were 4 and 3, respectively.
With `CNc1nc2cc3c(=O)[nH]cnc3cc2[nH]1`, in assay [1], binding was put at a Kd of 0.411 µM.
As for `Nc1nc2cc3[nH]c(NCCN4CCOCC4)nc3cc2c(=O)[nH]1`, the Kd in assay [1] stood at 0.035 µM; in assay [6] it was 1.28 µM.
For the compound `Cc1nc2cc3nc(N)[nH]c(=O)c3cc2[nH]1`, the Kd in assay [1] was found to be 0.288 µM.
